Consider 13 compounds from patent US12617783B2, “Heterocyclic GLP-1R agonists” (BIOMEA FUSION, INC., priority 2024, dated 2026).

The structures appear in SMILES notation. A value given as a limit tells only on which side of the number the result lay.

T1 sequence (P43220 24-463): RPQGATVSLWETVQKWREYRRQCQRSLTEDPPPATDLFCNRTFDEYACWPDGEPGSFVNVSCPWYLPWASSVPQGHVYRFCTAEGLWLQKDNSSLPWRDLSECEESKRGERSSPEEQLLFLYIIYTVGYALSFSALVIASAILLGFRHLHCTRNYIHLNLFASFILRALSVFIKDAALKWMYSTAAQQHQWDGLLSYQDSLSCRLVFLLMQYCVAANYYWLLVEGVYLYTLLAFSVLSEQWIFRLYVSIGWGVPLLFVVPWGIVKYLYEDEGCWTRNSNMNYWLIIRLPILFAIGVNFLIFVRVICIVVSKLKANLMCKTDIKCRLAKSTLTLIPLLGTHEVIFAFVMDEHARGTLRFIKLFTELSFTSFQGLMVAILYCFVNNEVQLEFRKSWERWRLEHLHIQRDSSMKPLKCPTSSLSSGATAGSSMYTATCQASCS

One test has as its target T1, human GLP-1R (Homo sapiens, UniProt P43220).
T1 construct: host or cells: HEK293
Kind of test: GLP-1R cAMP assay (Example B1a, HTRF, 30 min at room temperature). It counts as cell-based. The settings on record: Table 1d, stereoisomer pairs; read-out: EC50. The protocol: Assay was carried out with HEK293 expressing human GLP-1R using HTRF assay, developed by Wuxi Apptec. The method is a competitive assay between native cAMP produced by the cells and exogenous cAMP labeled with a proprietary dye d2. The tracer binding is visualized by a mAb anti-cAMP labeled with Cryptate. The signal (i.e. energy transfer) is inversely proportional to the concentration of CAMP in either standard or experimental sample. Compounds were tested in the absence of BETP. Ten microliter of cell suspension in assay buffer (5 mM HEPES, 500 μM IBMX, 0.1% BSA) were added to each well (1,000 cells per well) in a low volume 384-well plate for the assay. Serially diluted compounds were added in 100 nL volume to duplicate wells, by Labcyte Echo. GLP-1 (7-37) was used as positive control. Assay plate was incubated for 30 minutes at room temperature. Stock of cAMP Detection Solution was prepared by mixing 38 parts of cAMP lysis buffer, 1 part of cAMP-D2, 1 part of anti-cAMP cryptate reagent (Cisbio #62AM4PEJ). Ten microliter of the cAMP Detection Solution was added to each well, and the assay plate was incubated for 1 hour at room temperature in the dark. Plates were read on Envision plate reader. The data were analyzed by ScreenUltra in Dotmatics, with % activation expressed using following formula: (Well data−negative control)/(postive control−negative control)*100. Dose response curves were plotted and EC50 values calculated by non-linear regression using 4-parameter fit.
In general terms: Cyclic AMP is a second messenger, typically raised through Gs and lowered through Gi signalling.
The term EC50 denotes the concentration at which the effect is half-maximal. `Cc1cc(-n2nc3c(c2-n2ccn(-c4ccc5c(cnn5C)c4F)c2=O)[C@H]2COC[C@@H](C3)N2C(=O)c2cc3cc([C@H]4CCOC(C)(C)C4)ccc3n2[C@@]2(c3noc(=O)[nH]3)C[C@@H]2C)cc(C)c1F` [Compound 120, 3-((1S,2S)-1-(5-((S)-2,2-dimethyltetrahydro-2H-pyran-4-yl)-2-((4S,8R)-3-(3-(4-fluoro-1-methyl-1H-indazol-5-yl)-2-oxo-2,3-dihydro-1H-imidazol-1-yl)-2-(4-fluoro-3,5-dimethylphenyl)-2,4,5,7,8,9-hexahydro-4,8-epiminooxocino [5,4-c]pyrazole-10-carbonyl)-1H-indol-1-yl)-2-methylcyclopropyl)-1,2,4-oxadiazol-5(4H)-one]: the EC50 is greater than 10 µM.

The same test, now with this note: cAMP accumulation in HEK293 expressing human GLP-1R, no BETP, 30 min room temperature (Method B1a, compounds ID 1-609), Table 1; read-out: EC50.
Turning to `Cc1cc(-n2nc3c(c2-c2ncn(-c4ccc5c(cnn5C)c4F)c2C)[C@H](C)N(C(=O)c2cc4cc(N5C6CCC5COC6)ccc4n2C2(c4noc(=O)[nH]4)CC2)CC3)cc(C)c1F` [Compound 107, 3-[1-[2-[(4S)-2-(4-fluoro-3,5-dimethyl-phenyl)-3-[1-(4-fluoro-1-methyl-indazol-5-yl)-5-methyl-imidazol-4-yl]-4-methyl-6,7-dihydro-4H-pyrazolo[4,3-c]pyridine-5-carbonyl]-5-(3-oxa-8-azabicyclo[3.2.1]octan-8-yl)indol-1-yl]cyclopropyl]-4H-1,2,4-oxadiazol-5-one], the half-maximal effective concentration (EC50) was greater than 10 µM. On the same count and under the same terms, next, `Cc1cc(-n2nc3c(c2-c2ncn(-c4ccc5c(cnn5C)c4F)c2C)[C@H](C)N(C(=O)c2cc4cc(N5CCS(=O)(=O)CC5)ccc4n2C2(c4noc(=O)[nH]4)CC2)CC3)cc(C)c1F` [Compound 108, 3-[1-[5-(1,1-dioxo-1,4-thiazinan-4-yl)-2-[(4S)-2-(4-fluoro-3,5-dimethyl-phenyl)-3-[1-(4-fluoro-1-methyl-indazol-5-yl)-5-methyl-imidazol-4-yl]-4-methyl-6,7-dihydro-4H-pyrazolo[4,3-c]pyridine-5-carbonyl]indol-1-yl]cyclopropyl]-4H-1,2,4-oxadiazol-5-one]: greater than 10 µM; `Cc1cc(-n2nc3c(c2-n2ccn(-c4ccc5c(cnn5C)c4F)c2=O)[C@@H]2CC[C@H](C3)N2C(=O)c2cc3cc([C@H]4CCOC(C)(C)C4)ccc3n2C2(c3noc(=O)[nH]3)CC2)cc(C)c1F` [Compound 114, 3-(1-(5-((S)-2,2-dimethyltetrahydro-2H-pyran-4-yl)-2-((4S,7R)-3-(3-(4-fluoro-1-methyl-1H-indazol-5-yl)-2-oxo-2,3-dihydro-1H-imidazol-1-yl)-2-(4-fluoro-3,5-dimethylphenyl)-2,4,5,6,7,8-hexahydro-4,7-epiminocyclohepta [c]pyrazole-9-carbonyl)-1H-indol-1-yl)cyclopropyl)-1,2,4-oxadiazol-5 (4H)-one]: 0.593 µM; `Cc1cc(-n2nc3c(c2-n2ccn(-c4ccc5c(cnn5C)c4F)c2=O)[C@H](C)N(C(=O)c2cc4cc([C@H]5CCOC(C)(C)C5)ccc4n2C(=O)c2noc(=O)[nH]2)CC3)cc(C)c1F` [Compound 115, 3-[5-[(4S)-2,2-dimethyltetrahydropyran-4-yl]-2-[(4S)-2-(4-fluoro-3,5-dimethyl-phenyl)-3-[3-(4-fluoro-1-methyl-indazol-5-yl)-2-oxo-imidazol-1-yl]-4-methyl-6,7-dihydro-4H-pyrazolo[4,3-c]pyridine-5-carbonyl]indole-1-carbonyl]-4H-1,2,4-oxadiazol-5-one]: greater than 10 µM.

Take `Cc1cc(-n2nc3c(c2-n2ccn(-c4ccc5c(cnn5C)c4F)c2=O)C2COCC(C3)N2C(=O)c2cc3cc([C@H]4CCOC(C)(C)C4)ccc3n2[C@@]2(c3noc(=O)[nH]3)C[C@@H]2C)cc(C)c1F` (stereo partly drawn) [Compound 116, 3-((1S,2S)-1-(5-((S)-2,2-dimethyltetrahydro-2H-pyran-4-yl)-2-(3-(3-(4-fluoro-1-methyl-1H-indazol-5-yl)-2-oxo-2,3-dihydro-1H-imidazol-1-yl)-2-(4-fluoro-3,5-dimethylphenyl)-2,4,5,7,8,9-hexahydro-4,8-epiminooxocino [5,4-c]pyrazole-10-carbonyl)-1H-indol-1-yl)-2-methylcyclopropyl)-1,2,4-oxadiazol-5(4H)-one]: the EC50 worked out at 0.174 µM. Still for that read-out and setting: the same measure for `Cc1cc(-n2nc3c(c2-n2ccn(-c4ccc(C(N)=O)c(F)c4)c2=O)[C@@H]2CC[C@H](C3)N2C(=O)c2cc3cc([C@H]4CCOC(C)(C)C4)ccc3n2C2(c3noc(=O)[nH]3)CC2)cc(C)c1F` [Compound 117, 4-[3-[(1S,8R)-11-[5-[(4S)-2,2-dimethyltetrahydropyran-4-yl]-1-[1-(5-oxo-4H-1,2,4-oxadiazol-3-yl)cyclopropyl]indole-2-carbonyl]-4-(4-fluoro-3,5-dimethyl-phenyl)-4,5,11-triazatricyclo[6.2.1.02,6]undeca-2,5-dien-3-yl]-2-oxo-imidazol-1-yl]-2-fluoro-benzamide]: greater than 10 µM; for `Cc1cc(-n2nc3c(c2-n2ccn(-c4ccc5c(cnn5C)c4F)c2=O)[C@@H]2CC[C@H](C3)N2C(=O)c2cc3cc([C@H]4CCOC(C)(C)C4)ccc3n2C2(c3nnn[nH]3)CC2)cc(C)c1F` [Compound 118, 1-((4S,7R)-9-(1-(1-(1H-tetrazol-5-yl)cyclopropyl)-5-((S)-2,2-dimethyltetrahydro-2H-pyran-4-yl)-1H-indole-2-carbonyl)-2-(4-fluoro-3,5-dimethylphenyl)-2,4,5,6,7,8-hexahydro-4,7-epiminocyclohepta [c]pyrazol-3-yl)-3-(4-fluoro-1-methyl-1H-indazol-5-yl)-1H-imidazol-2 (3H)-one]: 0.452 µM. Regarding `Cc1cc(-n2nc3c(c2-n2ccn(-c4ccc5nnccc5c4)c2=O)[C@@H]2CC[C@H](C3)N2C(=O)c2cc3cc([C@H]4CCOC(C)(C)C4)ccc3n2C2(c3noc(=O)[nH]3)CC2)cc(C)c1F` [Compound 119, 3-[1-[2-[(1S,8R)-3-(3-cinnolin-6-yl-2-oxo-imidazol-1-yl)-4-(4-fluoro-3,5-dimethyl-phenyl)-4,5,11-triazatricyclo[6.2.1.02,6]undeca-2,5-diene-11-carbonyl]-5-[(4S)-2,2-dimethyltetrahydropyran-4-yl]indol-1-yl]cyclopropyl]-4H-1,2,4-oxadiazol-5-one], the EC50 came to 2.28 µM. `Cc1cc(-n2nc3c(c2-n2ccn(-c4ccc5c(cnn5C)c4F)c2=O)[C@H]2COC[C@@H](C3)N2C(=O)c2cc3cc([C@H]4CCOC(C)(C)C4)ccc3n2[C@@]2(c3noc(=O)[nH]3)C[C@@H]2C)cc(C)c1F` [Compound 120, 3-((1S,2S)-1-(5-((S)-2,2-dimethyltetrahydro-2H-pyran-4-yl)-2-((4S,8R)-3-(3-(4-fluoro-1-methyl-1H-indazol-5-yl)-2-oxo-2,3-dihydro-1H-imidazol-1-yl)-2-(4-fluoro-3,5-dimethylphenyl)-2,4,5,7,8,9-hexahydro-4,8-epiminooxocino [5,4-c]pyrazole-10-carbonyl)-1H-indol-1-yl)-2-methylcyclopropyl)-1,2,4-oxadiazol-5(4H)-one]: the EC50 is greater than 10 µM. Still for that read-out and setting: next, `Cc1cc(-n2nc3c(c2-n2ccn(-c4ccc5c(cnn5C)c4F)c2=O)[C@@H]2CC[C@H](C3)N2C(=O)c2cc3cc([C@H]4CCOC(C)(C)C4)ccc3n2C(=O)c2noc(=O)[nH]2)cc(C)c1F` [Compound 122, 3-[5-[(4S)-2,2-dimethyltetrahydropyran-4-yl]-2-[(1S,8R)-4-(4-fluoro-3,5-dimethyl-phenyl)-3-[3-(4-fluoro-1-methyl-indazol-5-yl)-2-oxo-imidazol-1-yl]-4,5,11-triazatricyclo[6.2.1.02,6]undeca-2,5-diene-11-carbonyl]indole-1-carbonyl]-4H-1,2,4-oxadiazol-5-one]: greater than 10 µM; `Cc1cc(-n2nc3c(c2-n2ccn(-c4ccc5cnncc5c4)c2=O)[C@@H]2CC[C@H](C3)N2C(=O)c2cc3cc([C@H]4CCOC(C)(C)C4)ccc3n2C2(c3noc(=O)[nH]3)CC2)cc(C)c1F` [Compound 124, 3-(1-(5-((S)-2,2-dimethyltetrahydro-2H-pyran-4-yl)-2-((4S,7R)-2-(4-fluoro-3,5-dimethylphenyl)-3-(2-oxo-3-(phthalazin-6-yl)-2,3-dihydro-1H-imidazol-1-yl)-2,4,5,6,7,8-hexahydro-4,7-epiminocyclohepta [c]pyrazole-9-carbonyl)-1H-indol-1-yl)cyclopropyl)-1,2,4-oxadiazol-5 (4H)-one]: 1.38 µM. Still for that read-out and setting: next, `Cc1cc(-n2nc3c(c2-n2ccn(-c4cccc(C(N)=O)c4F)c2=O)[C@@H]2CC[C@H](C3)N2C(=O)c2cc3cc([C@H]4CCOC(C)(C)C4)ccc3n2C2(c3noc(=O)[nH]3)CC2)cc(C)c1F` [Compound 125, 3-[3-[(1S,8R)-11-[5-[(4S)-2,2-dimethyltetrahydropyran-4-yl]-1-[1-(5-oxo-4H-1,2,4-oxadiazol-3-yl)cyclopropyl]indole-2-carbonyl]-4-(4-fluoro-3,5-dimethyl-phenyl)-4,5,11-triazatricyclo[6.2.1.02,6]undeca-2,5-dien-3-yl]-2-oxo-imidazol-1-yl]-2-fluoro-benzamide]: greater than 10 µM. In the case of `Cc1cc(-n2nc3c(c2-n2ccn(-c4ccc5c(cnn5C)c4F)c2=O)[C@@H]2CC[C@H](C3)N2C(=O)c2cc3ccc(C4CCOC(C)(C)C4)cc3nc2C2(c3noc(=O)[nH]3)CC2)cc(C)c1F` (stereo partly drawn) [Compound 126, 3-[1-[7-(2,2-dimethyltetrahydropyran-4-yl)-3-[(1S,8R)-4-(4-fluoro-3,5-dimethyl-phenyl)-3-[3-(4-fluoro-1-methyl-indazol-5-yl)-2-oxo-imidazol-1-yl]-4,5,11-triazatricyclo[6.2.1.02,6]undeca-2,5-diene-11-carbonyl]-2-quinolyl]cyclopropyl]-4H-1,2,4-oxadiazol-5-one], the EC50 was greater than 10 µM.

Still in this test, the particulars now being: text to Table 1d, bridge atoms configured out of the plane or toward the reader.
`Cc1cc(-n2nc3c(c2-n2ccn(-c4ccc5c(cnn5C)c4F)c2=O)[C@H]2COC[C@@H](C3)N2C(=O)c2cc3cc([C@H]4CCOC(C)(C)C4)ccc3n2[C@@]2(c3noc(=O)[nH]3)C[C@@H]2C)cc(C)c1F` [Compound 120, 3-((1S,2S)-1-(5-((S)-2,2-dimethyltetrahydro-2H-pyran-4-yl)-2-((4S,8R)-3-(3-(4-fluoro-1-methyl-1H-indazol-5-yl)-2-oxo-2,3-dihydro-1H-imidazol-1-yl)-2-(4-fluoro-3,5-dimethylphenyl)-2,4,5,7,8,9-hexahydro-4,8-epiminooxocino [5,4-c]pyrazole-10-carbonyl)-1H-indol-1-yl)-2-methylcyclopropyl)-1,2,4-oxadiazol-5(4H)-one]: the potency result is listed as “little or no potency”.
